Measured values as given in PMC10609940, “Systemic Dendrimer-Peptide Therapies for Wet Age-Related Macular Degeneration” (Pharmaceutics, 2023).
Where a SMILES comes first, the peptide text is derived from it. [ ]: non-standard residue; d: D form. Cya = N[C@@H](CS(=O)(=O)O)C(=O)O

Experiments:
HUVEC cells [1] = assay: Wound-healing (scratch) assay; type: cell-based, human; conditions: HUVEC monolayer pretreated 24 h; 24 h after injury; dose not stated
Protocol: HUVEC cells were seeded at a density of 5 × 10^4 cells per well in 24-well plates and set aside for at least 72 h for a uniform monolayer of cells to form. Cells were treated with D-ALG1001 and ALG-1001 for 24 h. A centimeter-long scratch was introduced to the cell monolayer with the tip of a 200 µL pipette tip. Images were taken on a Nikon
In addition to cell morphological and motility changes measured by tube formation assays, we investigated the activity of D-ALG and ALG-1001 in a wound-healing assay. Previous studies have utilized this method to assess cell migration and proliferation. Monolayers of HUVECs were pretreated with D-ALG or ALG-1001 followed by scratching the monolayer with a pipette tip. Images were taken at the time of the wound and at 24 h after injury. The proliferative activity of endothelial cells can be measured by the area that was healed postinjury to the monolayer. Untreated cells managed to heal up to 80% of the initial damage after 24 h, while cells treated with D-ALG and ALG-1001 healed up to 50% of the initial wound area. […] Because neovascularization is driven in part by the proliferation and migration of endothelial cells in the disease area, reductions in these activities as observed in cells treated with D-ALG can modulate endothelial cell contributions to the neovascularization process.

HUVEC cells [2] = assay: In vitro vessel (tube) formation assay on Matrigel; type: cell-based, human
Protocol: First, 96-well plates were coated with 75 µL of Matrigel and left at room temperature for 15 min before being placed into 37 °C incubators for an additional 30 min. Then, D-ALG1001 was dissolved at twice the desired concentration and 50 µL of the drug solution was added to the wells. HUVEC cells were then added to each well at a density of 70,000 cells/cm^2. Live-cell images were taken at 12 h for analysis.
To compare the dose–response efficacy of free and D-ALG in a physiologically relevant model, we utilized an in vitro model of blood vessel formation. HUVEC cells were treated with a gradient concentration of D-ALG and ALG-1001 for 24 h at three different magnitudes of doses. The cells were then seeded on Matrigel after which cells naturally migrate to form blood vessel-like tubule structures. The images were analyzed with the Angiogenesis Analyzer plug-in on ImageJ to extract relevant metrics that measure the connectivity and integrity of tube networks (Figure 3A and Figure S8).
Figure 3 In vitro inhibition of vessel formation. (A) Image analysis of HUVECs seeded onto a Matrigel matrix using the Angiogenesis Analyzer plug-in for ImageJ. […]

[3] = system: phospho-ERK1/2 and phospho-FAK (Y397) in HUVEC cells; assay: Western blot of ERK and FAK pathway activation after VEGF stimulation; type: cell-based, human; conditions: 100 µM on a peptide basis, 24 h pretreatment, VEGF 5 min; trend
Protocol: HUVEC cells were seeded at a density of 5 × 10^4 cells per well in 24-well plates 24 h before treatment. Cells were treated with D-ALG1001 and ALG-1001 for 24 h before activation with VEGF for 5 min. Cells were collected and lysed for Western blotting using T-Per buffer (ThermoFisher) supplemented with PhosStop and proteinase inhibitor cocktail. Cells were lysed with Trizol and processed as previously described for qPCR analysis.
In brief, the concentration of protein was determined with the BCA protein assay kit (Thermo Scientific, Rockford, IL, USA). Equal amounts of protein were denatured and resolved on 4–15% TGX gels (Bio-Rad, Hercules, CA, USA). Gels were transferred to nitrocellulose membranes, blocked with 3% BSA at RT for 1 h and probed for GAPDH, FAK, pFAK, MAPK, and pMAPK at 4 °C overnight. Membranes were washed thrice before incubation with HRP-conjugated secondary antibodies followed by incubation with chemiluminescent substrate for visualization.
To elucidate the mechanism through which D-ALG and free ALG-1001 influence angiogenic function, we pretreated the cells with D-ALG and free ALG-1001 for 24 h. The cells were then stimulated with a high dose of exogenous VEGF for 5 min after which the samples were collected for Western blotting. […]

[4] = system: FAK, p-FAK (Y397), p44/42 ERK, phospho-p44/42 ERK in choroidal tissue; assay: ELISA of FAK and ERK pathway activation in choroid, laser CNV model; type: in vivo, Brown Norway rats; conditions: 150 µg peptide basis i.p. every 4 days
Protocol: (§1) On the day of CNV induction (Day 0), D-ALG1001 and ALG1001 was administered intraperitoneally at a dose of 150 µg on a peptide basis. Subsequent doses were administered every 4 days. At days 7 and 14, mice were sacrificed and enucleated. Eyes used for CNV image were fixed in 10% formalin for 1 h. Eyes used for qPCR, ELISA, and Western blotting were immediately stored at −80 °C until use.
In brief, 500 µL of T-Per supplemented with PhosStop and proteinase inhibitor cocktail was added to tubes containing dissected choroid. A scoop of 1.6 mm steel homogenization beads was added to each sample and then placed in TissueLyserLT (Qiagen, Germantown, MD, USA) at an oscillation frequency of 50 cycles/s for 15 min.
For protein extracted from tissues, total FAK and FAK (Phospho) [pY397] ELISA kits (Invitrogen) were used to quantify the level of protein expression, and the measured protein expression was normalized to the total protein amount of each sample as determined from BCA assays.
To evaluate the activation of FAK and ERK pathways, eyes were enucleated at set time points, and the choroidal tissue dissected out. Tissues were submerged in a mixture of T-per, proteinase inhibitor, and PhosStop with stainless-steel homogenization beads and homogenized to produce protein extracts. Total FAK, total ERK, p-FAK (Y397), and p-44/42 ERK ELISA kits were used to quantify the amount of total and phosphorylated proteins in FAK and ERK pathways. […] However, the level of total FAK protein in ALG-1001-treated animals was elevated at day 14.

[5] = system: VEGF-A, TNFα, IL1β expression in choroid; assay: qPCR of VEGF-A, TNFα and IL1β in choroid, laser CNV model; type: in vivo, Brown Norway rats; conditions: 150 µg peptide basis i.p. every 4 days, days 7 and 14, trend
[6] = system: choroidal neovascularization (CNV) area; assay: In vivo attenuation of CNV formation, intraperitoneal dosing, laser CNV model; design: species or system Brown Norway rats
Protocol: as §1
(§2) Eyes were mounted by introducing four radial relaxation cuts. […] All images were processed with ImageJ.
We then evaluated whether the improved protection and targeting of D-ALG allowed for less invasive administration routes. A laser was used to induce CNV at day 0, and the first dose (150 µg peptide basis) of ALG-1001 and D-ALG was administered intraperitoneally. The animals were dosed once every 4 days at 150 µg of peptide basis (7.5 mg/kg). Choroidal flatmounts of eyes at day 7 and 14 were imaged, and the CNV area was calculated using ImageJ.

[7] = system: VEGF-A expression in HUVEC; assay: VEGF-A expression by endothelial cells (qPCR); type: cell-based, human; conditions: HUVEC coincubated with VEGF-A
[8] = system: IL1β and TNFα expression in RAW264.7 cells; assay: In vitro inflammation model, LPS-stimulated macrophages (qPCR); type: cell-based, Murine; conditions: 24 h pretreatment, LPS 3 h
[9] = system: choroidal neovascularization (CNV) area; assay: In vivo attenuation of CNV formation, intravitreal injection, laser CNV model; design: species or system Brown Norway rats; conditions: intravitreal injection after CNV induction; day 7
Text: as §2
A Micron III SLO scope and a laser attachment were used to induce CNV formation in mice. The laser CNV model was chosen due to its consistency in creating CNV and the progression of the CNV process. We first evaluated whether dendrimer conjugation impeded the peptide from attenuating CNV by first injecting free ALG-1001 and D-ALG intravitreally after CNV induction. The eyes were then collected on day 7 and the CNV area quantified.

`C[C@@H](O)[C@H](NC(=O)[C@H](CS(=O)(=O)O)NC(=O)CNC(=O)[C@H](CCCNC(=N)N)NC(=O)CN)C(=O)N1CCC[C@H]1C(=O)O` [ALG-1001] (H-GRG[Cya]TP-OH; N-terminus and C-terminus assumed) was tested. Which “initial wound area healed” value (HUVEC cells [1]) did it give?
The value was “up to 50%”.

What about the “vessel formation compared to untreated cells” value (HUVEC cells [2]; 1 mM, Angiogenesis Analyzer, ImageJ) of the same compound?
The value was “significantly reduced vessel formation”.

And the “vessel formation, effect of lower doses” value (HUVEC cells [2]; doses below 1 mM)?
The value was “not effective”.

What about the “phospho-ERK1/2 expression compared to untreated, VEGF stimulated controls” value [3] of the same compound?
Its value is “lower levels”.

What about the “phospho-FAK expression compared to untreated, VEGF stimulated controls” value [3] of the same compound?
The value was “lower levels”.

What about the “total ERK” value ([4]; day 7) of the same compound?
Its value is “remained relatively constant”.

What about the “total ERK compared to untreated animals” value ([4]; day 14) of the same compound?
The value was “slight trend in the reduction”.

What about the “total FAK protein” value ([4]; day 14) of the same compound?
The value was “elevated”.

What about the “p-FAK protein compared to untreated controls” value ([4]; days 7 and 14) of the same compound?
Its value is “trend in the reduction”.

And the IL1β expression [5]?
Its IL1β expression is “only reduced at day 14”.

And the “TNFα level (relative expression)” value [5]?
The value was “lower TNFα levels across both time points”.

And the “VEGF-A production (relative expression)” value [5]?
Its value is “lower VEGF-A production at 14 days only”.

And the “reduction of CNV area on day 14” value ([6]; 150 µg peptide basis (7.5 mg/kg) intraperitoneally every 4 days, choroidal flatmounts, ImageJ)?
Its value is 20%.

What about the “CNV area at day 14 (in words)” value ([6]; 150 µg peptide basis intraperitoneally every 4 days) of the same compound?
The value was “recovered”.

And the “VEGF production compared to the control” value [7]?
The value was “did not have statistically significant increases”.

What about the “impact on IL1β production” value ([8]; high and low dose) of the same compound?
The value was “no impact”.

What about the “reduction of TNFα expression” value ([8]; high dose 1 mM) of the same compound?
The value was 20%.

What about the “formation of CNV after intravitreal administration” value [9] of the same compound?
The value was “significantly inhibited the formation of CNV”.
